Values of other authors in patent US6376005B2, “Antimicrobial composition for food and beverage products” (The Procter & Gamble Company, priority 1997, dated 2002).

How the values were obtained:
[1] = tested on: Zygosaccharomyces bailii
[2] = tested on: bacteria

Row | Structure (SMILES) | effectiveness against yeasts such as Zygosaccharomyces bailii [1] | effectiveness against bacteria [2]
1 | C/C=C/C=C/C(=O)[O-].[K+] [potassium sorbate] | not effective | –
2 | C[C@@H]1C/C=C/C=C/C=C/C=C/[C@H](O[C@@H]2O[C@H](C)[C@@H](O)[C@H](N)[C@@H]2O)C[C@@H]2O[C@](O)(C[C@@H](O)C[C@H]3O[C@@H]3/C=C/C(=O)O1)C[C@H](O)[C@H]2C(=O)O [natamycin] | particularly effective | not effective
